Source: publication PMC6225228, “Design, Synthesis and Evaluation of N-pyrazinylbenzamides as Potential Antimycobacterial Agents” (Molecules : A Journal of Synthetic Chemistry and Natural …, 2018)
Read-outs that look alike come from different tables or passages of the source.

Legend:
[1] = system: M. kansasii CNCTC My 235/80 (ATCC 12478); assay: Antimycobacterial microdilution MABA, M. kansasii; format: cell-based, Mycobacterium kansasii; conditions: Mycobacterium kansasii, ATCC12478, pH 6.6, read-out: M. kans. ATCC 12478 MIC, Middlebrook 7H9 with OADC, pH 6.6, MABA
Trichosporon asahii 1188 = assay: Antifungal microdilution broth, TA; format: cell-based; conditions: read-out: MIC TA
Candida tropicalis 156 = assay: Antifungal microdilution broth, CT; format: cell-based; conditions: read-out: MIC CT
[2] = system: Staphylococcus epidermidis H 6966/08; assay: Antibacterial microdilution broth, SE; format: cell-based; conditions: Staphylococcus epidermidis, read-out: MIC SE
[3] = system: Escherichia coli CCM 4517; assay: Antibacterial microdilution broth, EC; format: cell-based; conditions: Escherichia coli, read-out: MIC EC
[4] = system: Mycobacterium tuberculosis H37Rv CNCTC My 331/88 (ATCC 27294); assay: Antimycobacterial microdilution MABA, M. tuberculosis; format: cell-based; conditions: for Mtb H37Rv ATCC 27294 MIC: Middlebrook 7H9 with OADC growth supplement, pH = 6.6, MABA; for MIC: Mycobacterium tuberculosis, read-out: Mtb H37Rv ATCC 27294 MIC, Middlebrook 7H9 with OADC growth supplement, pH = 6.6, MABA
[5] = system: M. avium ssp. avium CNCTC My 80/72 (ATCC 15769); assay: Antimycobacterial microdilution MABA, M. avium; format: cell-based, Mycobacterium avium; conditions: Mycobacterium avium, ATCC15769, pH 6.6, read-out: M. avium ATCC 15769 MIC
Candida glabrata 20/I = assay: Antifungal microdilution broth, CG; format: cell-based; conditions: Nakaseomyces glabratus, 20/I, read-out: MIC CG
[6] = system: Aspergillus fumigatus 231; assay: Antifungal microdilution broth, AF; format: cell-based; conditions: read-out: MIC AF
[7] = system: Trichophyton interdigitale 445; assay: Antifungal microdilution broth, TI; format: cell-based; conditions: read-out: MIC TI
[8] = system: Lichtheimia corymbifera 272; assay: Antifungal microdilution broth, LC; format: cell-based; conditions: read-out: MIC LC
[9] = system: Mycobacterium smegmatis CCM 4622 (ATCC 607); assay: Antimycobacterial microdilution, M. smegmatis; format: cell-based; conditions: Mycolicibacterium smegmatis, read-out: M. smeg. ATCC 607 MIC
[10] = system: Candida albicans ATCC 44859; assay: Antifungal microdilution broth, CA; format: cell-based; conditions: Candida albicans, read-out: MIC CA
[11] = system: Pseudomonas aeruginosa CCM 1961; assay: Antibacterial microdilution broth, PA; format: cell-based; conditions: Pseudomonas aeruginosa, read-out: MIC PA
[12] = system: Staphylococcus aureus H 5996/08 methicillin resistant; assay: microbe, parasite or virus in culture; format: cell-based; conditions: Staphylococcus aureus, MRSA, read-out: MIC MRSA
[13] = system: Staphylococcus aureus CCM 4516/08; assay: Antibacterial microdilution broth, SA; format: cell-based; conditions: Staphylococcus aureus
Candida krusei E28 = assay: Antifungal microdilution broth, CK; format: cell-based; conditions: Pichia kudriavzevii, read-out: MIC CK
[14] = system: Enterococcus sp. J 14365/08; assay: Antibacterial microdilution broth, EF; format: cell-based; conditions: Enterococcus, read-out: MIC EF
[15] = Trichosporon asahii, 1188, 24 h
[16] = Trichosporon asahii, 1188, 48 h
[17] = Aspergillus fumigatus, 231, 24 h
[18] = Aspergillus fumigatus, 231, 48 h
[19] = Trichophyton interdigitale, 445, 72 h
[20] = Trichophyton interdigitale, 445, 120 h
[21] = Lichtheimia corymbifera, 272, 24 h
[22] = Lichtheimia corymbifera, 272, 48 h
[23] = CCM4516, 24 h, read-out: MIC SA, 24 h
[24] = CCM4516, 48 h, read-out: MIC SA, 48 h
[25] = CCM4516, read-out: MIC against S. aureus, time not stated

Compound	MIC [1] [µg/mL]	MIC (Trichosporon asahii 1188; [15]) [µM]	MIC (Trichosporon asahii 1188; [16]) [µM]	MIC (Candida tropicalis 156; Candida tropicalis, 156, 24 h) [µM]	MIC (Candida tropicalis 156; Candida tropicalis, 156, 48 h) [µM]	MIC ([2]; H6966/08, 24 h) [µM]	MIC ([2]; H6966/08, 48 h) [µM]	MIC ([3]; CCM4517, 24 h) [µM]	MIC ([3]; CCM4517, 48 h) [µM]	MIC [4] [µg/mL]	MIC [5] [µg/mL]	MIC (Candida glabrata 20/I; 24 h) [µM]	MIC (Candida glabrata 20/I; 48 h) [µM]	MIC [6, 17] [µM]	MIC [6, 18] [µM]	MIC [7, 19] [µM]	MIC [7, 20] [µM]	MIC [8, 21] [µM]	MIC [8, 22] [µM]	MIC [9] [µg/mL]	further results
O=C(Nc1cnc(Cl)cn1)c1cccc(Cl)c1 [Compound 2k]	> 100	> 125	> 125	> 125	> 125	> 125	> 125	> 125	> 125	> 100	> 100	> 125	> 125	> 125	> 125	> 125	> 125	> 125	> 125	≥ 500	Mtb H37Rv ATCC 27294 MIC [4]: >100 µg/mL; MIC ([10]; ATCC44859, 24 h): > 125 µM; MIC ([10]; ATCC44859, 48 h): > 125 µM; MIC ([11]; CCM1961, 72 h): > 125 µM; MIC ([11]; CCM1961, 120 h): > 125 µM; MIC ([12]; 24 h): > 125 µM; MIC ([12]; 48 h): > 125 µM; MIC [13, 23]: > 125 µM; MIC [13, 24]: > 125 µM; MIC [13, 25]: > 125 µM; MIC (Candida krusei E28; E28, 24 h): > 125 µM; MIC (Candida krusei E28; E28, 48 h): > 125 µM; melting point: 150.7 to 151.9 °C; MIC ([14]; SP.J14365/08, 24 h): > 125 µM; MIC ([14]; SP.J14365/08, 48 h): > 125 µM
O=C(Nc1cnc(Cl)cn1)c1ccc(Cl)cc1 [Compound 2l]	> 100	> 125	> 125	> 125	> 125	> 125	> 125	> 125	> 125	> 100	> 100	> 125	> 125	> 125	> 125	> 125	> 125	> 125	> 125	≥ 500	MIC ([10]; ATCC44859, 24 h): > 125 µM; MIC ([10]; ATCC44859, 48 h): > 125 µM; MIC ([11]; CCM1961, 72 h): > 125 µM; MIC ([11]; CCM1961, 120 h): > 125 µM; MIC ([12]; 24 h): > 125 µM; MIC ([12]; 48 h): > 125 µM; MIC [13, 23]: > 125 µM; MIC [13, 24]: > 125 µM; MIC [13, 25]: > 125 µM; MIC (Candida krusei E28; E28, 24 h): > 125 µM; MIC (Candida krusei E28; E28, 48 h): > 125 µM; melting point: 225 to 226.3 °C; MIC ([14]; SP.J14365/08, 24 h): > 125 µM; MIC ([14]; SP.J14365/08, 48 h): > 125 µM
O=C(Nc1cnc(Cl)cn1)c1ccc(Br)cc1 [Compound 2m]	> 100	> 125	> 125	> 125	> 125	> 125	> 125	> 125	> 125	> 100	> 100	> 125	> 125	> 125	> 125	> 125	> 125	> 125	> 125	≥ 500	Mtb H37Rv ATCC 27294 MIC [4]: >100 µg/mL; MIC ([10]; ATCC44859, 24 h): > 125 µM; MIC ([10]; ATCC44859, 48 h): > 125 µM; MIC ([11]; CCM1961, 72 h): > 125 µM; MIC ([11]; CCM1961, 120 h): > 125 µM; MIC ([12]; 24 h): > 125 µM; MIC ([12]; 48 h): > 125 µM; MIC [13, 23]: > 125 µM; MIC [13, 24]: > 125 µM; MIC (Candida krusei E28; E28, 24 h): > 125 µM; MIC (Candida krusei E28; E28, 48 h): > 125 µM; melting point: 229.2 to 230.5 °C; MIC ([14]; SP.J14365/08, 24 h): > 125 µM; MIC ([14]; SP.J14365/08, 48 h): > 125 µM
COc1ccccc1C(=O)Nc1cncc(Cl)n1 [Compound 3e]	> 100	> 500	> 500	> 500	> 500	> 500	> 500	> 500	> 500	> 100	> 100	> 500	> 500	> 500	> 500	> 500	> 500	> 500	> 500	≥ 500	Mtb H37Rv ATCC 27294 MIC [4]: >100 µg/mL; MIC ([10]; ATCC44859, 24 h): > 500 µM; MIC ([10]; ATCC44859, 48 h): > 500 µM; MIC ([11]; CCM1961, 72 h): > 500 µM; MIC ([11]; CCM1961, 120 h): > 500 µM; MIC ([12]; 24 h): > 500 µM; MIC ([12]; 48 h): > 500 µM; MIC [13, 23]: > 500 µM; MIC [13, 24]: > 500 µM; MIC (Candida krusei E28; E28, 24 h): > 500 µM; MIC (Candida krusei E28; E28, 48 h): > 500 µM; melting point: 149.1 to 150.7 °C; MIC ([14]; SP.J14365/08, 24 h): > 500 µM; MIC ([14]; SP.J14365/08, 48 h): > 500 µM
